Test results reported in ChEMBL document CHEMBL5465560, “Selectivity Literature for EUbOPEN Chemogenomic Library” (2024).
Blank lines part the entries; values can stand above or below the molecule they belong to.

Tests used:
[1] = target: Serine/threonine-protein kinase 32B (Homo sapiens) (UniProt Q9NY57); conditions: at 10 µM
[2] = target: Serine/threonine-protein kinase 26 (Homo sapiens, UniProt Q9P289); test: Selectivity interaction (KinomeScan (DiscoverX)) EUB0000655a STK26; conditions: at 10 µM
Serine/threonine-protein kinase 26, sequence (Q9P289 2-416 limits assumed): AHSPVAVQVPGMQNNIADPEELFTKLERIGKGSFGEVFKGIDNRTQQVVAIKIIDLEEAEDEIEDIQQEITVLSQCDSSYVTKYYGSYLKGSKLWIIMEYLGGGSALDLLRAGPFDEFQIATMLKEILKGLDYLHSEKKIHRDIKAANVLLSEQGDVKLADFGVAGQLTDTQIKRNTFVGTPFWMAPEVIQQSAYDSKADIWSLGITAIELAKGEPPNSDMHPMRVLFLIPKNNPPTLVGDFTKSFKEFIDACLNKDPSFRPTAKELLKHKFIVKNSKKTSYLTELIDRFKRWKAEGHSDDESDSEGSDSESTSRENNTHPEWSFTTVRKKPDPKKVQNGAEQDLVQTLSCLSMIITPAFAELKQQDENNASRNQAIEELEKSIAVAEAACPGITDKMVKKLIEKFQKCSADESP

[3] = target: Mitogen-activated protein kinase 1 (Homo sapiens, UniProt P28482); test: Selectivity interaction (KinomeScan (DiscoverX)) EUB0001079a MAPK1; conditions: at 1 µM
Mitogen-activated protein kinase 1, sequence (P28482 whole entry): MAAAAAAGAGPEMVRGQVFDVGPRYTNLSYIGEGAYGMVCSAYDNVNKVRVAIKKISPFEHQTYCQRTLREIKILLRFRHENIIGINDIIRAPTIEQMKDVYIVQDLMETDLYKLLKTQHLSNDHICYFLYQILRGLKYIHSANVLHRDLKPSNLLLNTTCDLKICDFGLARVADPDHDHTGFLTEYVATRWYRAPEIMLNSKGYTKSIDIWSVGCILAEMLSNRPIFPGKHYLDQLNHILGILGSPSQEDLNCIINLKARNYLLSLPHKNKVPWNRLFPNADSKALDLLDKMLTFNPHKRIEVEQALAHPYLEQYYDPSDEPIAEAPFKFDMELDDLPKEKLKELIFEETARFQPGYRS

[4] = target: Serine/threonine-protein kinase Chk2 (Homo sapiens) (UniProt O96017); test: Selectivity interaction (KinomeScan (DiscoverX)) EUB0000618a CHEK2; conditions: at 10 µM
Serine/threonine-protein kinase Chk2 (Homo sapiens), sequence (O96017 whole entry): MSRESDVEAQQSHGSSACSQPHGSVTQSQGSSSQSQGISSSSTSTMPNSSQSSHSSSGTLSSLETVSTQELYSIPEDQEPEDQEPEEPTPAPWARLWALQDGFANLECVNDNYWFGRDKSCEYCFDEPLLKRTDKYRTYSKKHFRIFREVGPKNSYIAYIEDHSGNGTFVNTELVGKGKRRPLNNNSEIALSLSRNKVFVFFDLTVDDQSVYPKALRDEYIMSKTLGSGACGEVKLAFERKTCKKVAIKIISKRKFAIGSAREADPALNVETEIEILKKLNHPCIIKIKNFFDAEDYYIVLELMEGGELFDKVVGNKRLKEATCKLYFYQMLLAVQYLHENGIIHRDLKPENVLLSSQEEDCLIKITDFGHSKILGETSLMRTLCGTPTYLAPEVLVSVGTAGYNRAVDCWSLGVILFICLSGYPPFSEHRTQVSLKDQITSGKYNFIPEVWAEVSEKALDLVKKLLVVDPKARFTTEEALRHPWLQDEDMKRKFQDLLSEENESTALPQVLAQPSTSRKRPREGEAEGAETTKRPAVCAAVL

[5] = target: Ephrin type-A receptor 2 (Homo sapiens) (UniProt P29317); test: Selectivity interaction (SelectScreen profiling (Invitrogen)) EUB0000607a EPHA2; conditions: at 2 µM
Ephrin type-A receptor 2 (Homo sapiens), sequence (P29317 whole entry): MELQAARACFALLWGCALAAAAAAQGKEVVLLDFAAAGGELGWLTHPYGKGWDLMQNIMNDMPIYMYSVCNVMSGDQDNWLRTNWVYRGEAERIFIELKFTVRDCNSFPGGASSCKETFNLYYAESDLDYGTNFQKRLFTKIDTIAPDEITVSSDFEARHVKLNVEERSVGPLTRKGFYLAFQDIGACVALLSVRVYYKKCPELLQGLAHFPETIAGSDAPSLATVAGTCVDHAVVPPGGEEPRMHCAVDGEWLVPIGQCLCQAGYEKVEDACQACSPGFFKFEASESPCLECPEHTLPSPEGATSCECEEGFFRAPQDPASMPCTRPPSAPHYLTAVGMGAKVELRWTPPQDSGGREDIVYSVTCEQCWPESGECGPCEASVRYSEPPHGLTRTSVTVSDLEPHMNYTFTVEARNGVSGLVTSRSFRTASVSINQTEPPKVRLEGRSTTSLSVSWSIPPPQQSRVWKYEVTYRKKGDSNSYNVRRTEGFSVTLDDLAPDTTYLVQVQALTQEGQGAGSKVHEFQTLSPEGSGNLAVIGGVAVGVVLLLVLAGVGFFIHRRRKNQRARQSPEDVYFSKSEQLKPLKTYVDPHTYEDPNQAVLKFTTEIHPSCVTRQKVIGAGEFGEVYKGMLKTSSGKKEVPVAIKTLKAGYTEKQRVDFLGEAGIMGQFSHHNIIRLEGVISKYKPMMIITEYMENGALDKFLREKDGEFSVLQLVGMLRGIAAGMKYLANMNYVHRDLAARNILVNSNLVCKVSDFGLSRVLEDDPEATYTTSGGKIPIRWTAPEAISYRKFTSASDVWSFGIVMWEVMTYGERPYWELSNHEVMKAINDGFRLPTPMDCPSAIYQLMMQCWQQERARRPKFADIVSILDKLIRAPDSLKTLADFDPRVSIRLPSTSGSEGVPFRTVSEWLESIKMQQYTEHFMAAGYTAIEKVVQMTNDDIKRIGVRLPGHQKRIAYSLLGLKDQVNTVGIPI

[6] = target: Cyclin-dependent kinase 18 (Homo sapiens) (UniProt Q07002); test: Selectivity interaction (KinomeScan (DiscoverX)) EUB0001619a CDK18; conditions: at 1 µM
[7] = target: Tyrosine-protein kinase Yes (Homo sapiens) (UniProt P07947); test: Selectivity interaction (ActivX KiNativ screen (ex vivo kinase selectivity in human PBMCs)) EUB0001619a YES1; type: cell-based; conditions: PBMC, at 1 µM
Tyrosine-protein kinase Yes (Homo sapiens), sequence (P07947 2-543 limits assumed): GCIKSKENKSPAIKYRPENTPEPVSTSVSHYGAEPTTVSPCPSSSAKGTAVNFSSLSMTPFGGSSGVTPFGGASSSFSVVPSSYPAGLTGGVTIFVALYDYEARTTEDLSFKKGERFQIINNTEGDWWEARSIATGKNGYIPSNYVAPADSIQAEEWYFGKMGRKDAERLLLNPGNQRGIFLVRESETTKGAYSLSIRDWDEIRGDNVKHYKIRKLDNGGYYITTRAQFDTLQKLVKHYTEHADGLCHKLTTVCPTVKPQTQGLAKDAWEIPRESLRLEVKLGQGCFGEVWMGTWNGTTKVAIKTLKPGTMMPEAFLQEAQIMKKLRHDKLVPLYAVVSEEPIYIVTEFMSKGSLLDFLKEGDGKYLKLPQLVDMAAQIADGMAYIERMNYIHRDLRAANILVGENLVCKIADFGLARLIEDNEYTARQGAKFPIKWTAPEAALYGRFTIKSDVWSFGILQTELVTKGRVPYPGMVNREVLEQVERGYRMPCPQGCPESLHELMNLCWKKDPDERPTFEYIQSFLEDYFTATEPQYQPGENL

[8] = test system: Fibroblast growth factor receptor 3 (Homo sapiens), P22607 [G697C]; test: (§1) Selectivity interaction (KinomeScan (DiscoverX)) EUB0000045b FGFR3
Fibroblast growth factor receptor 3 (Homo sapiens), P22607 [G697C], sequence (P22607 whole entry G697C): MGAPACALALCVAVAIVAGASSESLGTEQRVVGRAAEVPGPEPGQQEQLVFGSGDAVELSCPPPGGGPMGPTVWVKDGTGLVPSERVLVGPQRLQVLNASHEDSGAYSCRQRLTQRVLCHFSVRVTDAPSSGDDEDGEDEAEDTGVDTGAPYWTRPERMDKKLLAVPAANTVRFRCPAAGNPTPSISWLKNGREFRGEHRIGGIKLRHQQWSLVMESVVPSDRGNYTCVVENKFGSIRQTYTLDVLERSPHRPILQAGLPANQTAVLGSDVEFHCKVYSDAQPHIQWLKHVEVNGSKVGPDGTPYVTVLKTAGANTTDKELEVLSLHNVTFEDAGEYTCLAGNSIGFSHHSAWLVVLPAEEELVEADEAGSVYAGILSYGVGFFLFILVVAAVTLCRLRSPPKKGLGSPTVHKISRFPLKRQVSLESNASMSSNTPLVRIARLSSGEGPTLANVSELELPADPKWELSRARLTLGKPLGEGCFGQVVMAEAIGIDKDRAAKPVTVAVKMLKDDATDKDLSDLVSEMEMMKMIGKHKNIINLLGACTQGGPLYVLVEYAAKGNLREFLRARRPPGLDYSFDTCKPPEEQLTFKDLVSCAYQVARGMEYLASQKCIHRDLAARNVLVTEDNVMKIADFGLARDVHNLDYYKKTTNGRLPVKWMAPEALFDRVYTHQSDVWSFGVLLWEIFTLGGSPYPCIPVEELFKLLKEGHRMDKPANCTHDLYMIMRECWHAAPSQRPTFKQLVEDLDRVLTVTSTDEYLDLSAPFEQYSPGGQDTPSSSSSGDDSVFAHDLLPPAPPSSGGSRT

[9] = target: Fibroblast growth factor receptor 3 (Homo sapiens, UniProt P22607); test: as §1
Fibroblast growth factor receptor 3, sequence (P22607 23-806 limits assumed): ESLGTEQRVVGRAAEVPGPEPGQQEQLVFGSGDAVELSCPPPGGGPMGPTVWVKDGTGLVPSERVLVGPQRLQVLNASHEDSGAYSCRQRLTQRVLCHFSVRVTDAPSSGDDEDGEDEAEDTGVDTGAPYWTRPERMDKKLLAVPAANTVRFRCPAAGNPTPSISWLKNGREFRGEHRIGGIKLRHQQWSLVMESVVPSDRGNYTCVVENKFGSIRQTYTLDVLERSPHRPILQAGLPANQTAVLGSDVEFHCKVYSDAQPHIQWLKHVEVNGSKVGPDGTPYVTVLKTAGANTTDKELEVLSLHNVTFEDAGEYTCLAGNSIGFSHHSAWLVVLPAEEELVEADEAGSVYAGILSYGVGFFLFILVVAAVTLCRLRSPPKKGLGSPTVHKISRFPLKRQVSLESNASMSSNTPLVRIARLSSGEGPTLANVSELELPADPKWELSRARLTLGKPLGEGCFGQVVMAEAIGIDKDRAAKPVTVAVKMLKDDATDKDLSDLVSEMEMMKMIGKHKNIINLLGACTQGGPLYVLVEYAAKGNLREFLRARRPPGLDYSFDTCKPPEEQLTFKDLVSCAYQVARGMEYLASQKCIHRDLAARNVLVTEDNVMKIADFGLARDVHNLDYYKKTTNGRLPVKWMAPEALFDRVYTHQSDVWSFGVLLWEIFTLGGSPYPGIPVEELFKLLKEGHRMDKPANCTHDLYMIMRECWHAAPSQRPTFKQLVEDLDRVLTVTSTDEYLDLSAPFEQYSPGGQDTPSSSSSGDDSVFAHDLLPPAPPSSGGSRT

[10] = target: Serine/threonine-protein kinase MARK2 (Homo sapiens) (UniProt Q7KZI7); conditions: at 10 µM
[11] = target: T1, Activin receptor type-1B (Homo sapiens) (UniProt P36896); test: Selectivity interaction (Kinase panel (Invitrogen)) EUB0000639a ACVR1B; conditions: at 200 nM
T1 sequence (whole entry): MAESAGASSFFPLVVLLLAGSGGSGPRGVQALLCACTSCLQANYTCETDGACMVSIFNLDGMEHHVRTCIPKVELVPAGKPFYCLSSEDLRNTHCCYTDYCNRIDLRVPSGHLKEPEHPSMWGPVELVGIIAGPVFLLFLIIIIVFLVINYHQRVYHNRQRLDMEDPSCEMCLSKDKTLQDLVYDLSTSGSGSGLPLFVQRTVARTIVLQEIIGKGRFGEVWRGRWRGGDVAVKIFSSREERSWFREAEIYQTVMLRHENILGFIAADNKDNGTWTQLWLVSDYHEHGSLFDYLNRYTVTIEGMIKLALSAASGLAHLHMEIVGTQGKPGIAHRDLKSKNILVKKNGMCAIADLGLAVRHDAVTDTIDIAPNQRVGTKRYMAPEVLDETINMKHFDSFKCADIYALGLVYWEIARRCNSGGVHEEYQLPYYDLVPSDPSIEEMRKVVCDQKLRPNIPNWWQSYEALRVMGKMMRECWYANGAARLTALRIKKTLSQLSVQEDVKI

[12] = target: T2, Serine/threonine-protein kinase 3 (Homo sapiens) (UniProt Q13188); test: Selectivity interaction (KinomeScan (DiscoverX)) EUB0000229b STK3; conditions: at 10 µM
T2 sequence (whole entry): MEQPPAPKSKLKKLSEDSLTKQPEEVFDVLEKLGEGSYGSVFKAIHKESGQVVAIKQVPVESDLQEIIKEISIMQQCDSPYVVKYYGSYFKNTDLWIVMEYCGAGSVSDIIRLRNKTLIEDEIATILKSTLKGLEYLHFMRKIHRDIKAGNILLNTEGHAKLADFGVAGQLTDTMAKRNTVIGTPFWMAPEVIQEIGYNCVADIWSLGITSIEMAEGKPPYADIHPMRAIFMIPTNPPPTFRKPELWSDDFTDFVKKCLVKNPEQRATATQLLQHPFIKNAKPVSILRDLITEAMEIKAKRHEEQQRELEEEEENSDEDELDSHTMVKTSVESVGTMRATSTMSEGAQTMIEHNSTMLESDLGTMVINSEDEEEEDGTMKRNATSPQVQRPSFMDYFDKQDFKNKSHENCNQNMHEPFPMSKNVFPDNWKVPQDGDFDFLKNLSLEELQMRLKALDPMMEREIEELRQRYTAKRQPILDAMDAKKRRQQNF

[13] = target: Macrophage-stimulating protein receptor (Homo sapiens, UniProt Q04912); test: Selectivity interaction (KinomeScan (DiscoverX)) EUB0000229b MST1R; conditions: at 10 µM
[14] = target: T3, Dual specificity tyrosine-phosphorylation-regulated kinase 4 (Homo sapiens) (UniProt Q9NR20); test: Selectivity interaction (ProQinase) EUB0000171b DYRK4
T3 sequence (whole entry): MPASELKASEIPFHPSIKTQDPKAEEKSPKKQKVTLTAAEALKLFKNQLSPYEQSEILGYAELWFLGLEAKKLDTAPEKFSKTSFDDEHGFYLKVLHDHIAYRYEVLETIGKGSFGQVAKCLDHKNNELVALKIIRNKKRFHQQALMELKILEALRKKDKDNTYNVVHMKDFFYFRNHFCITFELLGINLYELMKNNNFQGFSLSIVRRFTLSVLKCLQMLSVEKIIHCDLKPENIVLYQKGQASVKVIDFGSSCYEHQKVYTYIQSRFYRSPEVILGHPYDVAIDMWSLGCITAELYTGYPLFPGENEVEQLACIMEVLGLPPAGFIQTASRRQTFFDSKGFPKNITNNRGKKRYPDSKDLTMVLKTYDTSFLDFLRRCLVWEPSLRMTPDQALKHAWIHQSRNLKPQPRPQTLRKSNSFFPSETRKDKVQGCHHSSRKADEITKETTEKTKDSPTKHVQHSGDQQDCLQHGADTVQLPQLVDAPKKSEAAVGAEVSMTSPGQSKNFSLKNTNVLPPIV

[15] = target: T4, 5-hydroxytryptamine receptor 3A (Homo sapiens) (UniProt P46098); test: Selectivity interaction (Panel of kinases, GPCRs, ion channels and transporters (enzymatic assay)) EUB0000223bCl HTR3A
T4 sequence (whole entry): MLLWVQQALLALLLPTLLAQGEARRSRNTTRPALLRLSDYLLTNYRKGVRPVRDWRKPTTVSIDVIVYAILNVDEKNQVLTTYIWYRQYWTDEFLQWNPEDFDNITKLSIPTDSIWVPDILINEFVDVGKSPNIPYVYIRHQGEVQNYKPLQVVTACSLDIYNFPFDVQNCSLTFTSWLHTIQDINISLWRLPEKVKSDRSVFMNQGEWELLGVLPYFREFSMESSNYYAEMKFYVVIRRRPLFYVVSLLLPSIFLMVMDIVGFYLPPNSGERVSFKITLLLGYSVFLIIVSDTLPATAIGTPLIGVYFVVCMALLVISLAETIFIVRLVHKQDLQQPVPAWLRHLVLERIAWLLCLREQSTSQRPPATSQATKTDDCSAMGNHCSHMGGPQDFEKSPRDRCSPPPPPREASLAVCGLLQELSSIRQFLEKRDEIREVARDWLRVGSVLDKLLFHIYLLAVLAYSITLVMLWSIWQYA

Serine/threonine-protein kinase 32B (Homo sapiens), sequence (Q9NY57 whole entry): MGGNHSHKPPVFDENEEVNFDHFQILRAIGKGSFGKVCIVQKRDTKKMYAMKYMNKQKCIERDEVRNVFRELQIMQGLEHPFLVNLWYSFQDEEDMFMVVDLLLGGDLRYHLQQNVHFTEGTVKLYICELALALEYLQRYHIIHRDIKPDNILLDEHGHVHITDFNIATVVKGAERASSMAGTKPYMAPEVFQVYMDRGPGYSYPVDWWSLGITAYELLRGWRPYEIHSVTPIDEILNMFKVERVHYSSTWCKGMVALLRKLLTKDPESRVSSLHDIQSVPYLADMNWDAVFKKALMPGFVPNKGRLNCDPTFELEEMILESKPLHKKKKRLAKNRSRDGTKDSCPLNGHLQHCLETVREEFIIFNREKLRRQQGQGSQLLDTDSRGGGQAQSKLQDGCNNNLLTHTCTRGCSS

% of control [1]: 100%
SMILES: CCN(CC)CCCCNc1ncc2cc(-c3cc(OC)cc(OC)c3)c(NC(=O)NC(C)(C)C)nc2n1

SMILES: CN(C)CCOc1ccc(-c2nc(-c3ccncc3)c(-c3ccc4c(c3)CC/C4=N\O)[nH]2)cc1
% of control [2]: 91%

SMILES: Nc1cnc(N2CCc3cc(S(=O)(=O)Nc4c(F)cc(Cl)cc4F)cc(N4CCCC4=O)c32)nc1 [TP-020n]
% of control [3]: 100%

SMILES: O[C@H]1CC[C@H](Nc2ncc3nc(Nc4c(F)cc(F)cc4F)n([C@H]4CCOC4)c3n2)CC1
% of control [4]: 100%

SMILES: CNC(=O)Nc1ccc(-c2nc(N3CC4CCC(C3)O4)c3cnn(C4CCC5(CC4)OCCO5)c3n2)cc1
% of inhibition [5]: 8%

SMILES: N#Cc1cccc(-c2c[nH]c3ncnc(N4CCOCC4)c23)c1
% of control [6]: 100%
% of inhibition [7]: -9%

SMILES: C=CC(=O)Nc1cc(-n2c(=O)ccc3cnc4ccc(-c5ccc(NS(C)(=O)=O)cc5)cc4c32)ccc1C
% of control ([8]; at 1 µM): 26%
% of control ([8]; at 10 µM): 96%
% of control ([9]; at 1 µM): 100%
% of control ([9]; at 10 µM): 100%

SMILES: Cc1cc([C@@H](C)Nc2ccccc2C(=O)O)c2nc(N3CCOCC3)cc(=O)n2c1 [AZD-6482]
% of control [10]: 90%

% of inhibition [11]: 2.54%
SMILES: CC[C@@H]1[C@H](F)C(=O)N[C@@H]1COc1nccc2cc(C(N)=O)c(OC)cc12 [ZIMLOVISERTIB]

SMILES: COc1cc(N(C)c2ccnc3ccc(C(F)(F)F)cc23)cc(OC)c1OC
% binding [12]: 93%
% binding [13]: 82%

% of control ([14]; at 1 µM): 90%
% of control ([14]; at 5 µM): 84%
SMILES: C=CC(=O)Nc1cccc(C(=O)Nc2ccc(Nc3cc(-c4[nH]c(SC)nc4C)ccn3)cc2)c1

SMILES: COc1cc(C(=O)N2CC[C@@H](O)[C@@H](N)C2)cc2nc(-c3cc4ccccc4n3CC3CC3)n(C)c12
pXC50 [15]: 4.3 M
